Earlier results, collected in patent US20100249179A1, “Farnesoid X Receptor Agonists” (SMITHKLINE BEECHAM CORPORATION, priority 2007, published 2010).
“Also recorded” adds a separate entry of the source.

Legend:
[1] = test system: mice on a lithogenic diet; settings: cited from earlier work
diabetic db/db mice = settings: cited from earlier work
bile duct-ligated mouse = bile duct-ligated mouse model; cited from earlier work
male ob/ob mice = settings: GW4064 30 mg/kg intraperitoneally; cited from earlier work
[2] = test system: C57BL mice on high-fat diet; settings: cited from earlier work
[3] = oral GW4064 30 mg/kg bid, db/db mice
[4] = GW4064 100 mg/kg twice a day orally, high-fat diet mice, 100 mg/kg
[5] = GW4064 100 mg/kg twice a day orally, high-fat diet mice

**Q.** With `CC(C)c1onc(-c2c(Cl)cccc2Cl)c1COc1ccc(/C=C/c2cccc(C(=O)O)c2)c(Cl)c1` [GW4064] as the compound, how does the “formation of cholesterol crystals in the bile” value [1] read?
**A.** prevented

**Q.** And the “glycogen storage in the liver” value (diabetic db/db mice; db/db mice)?
**A.** enhanced

**Q.** And the “insulin signalling in the liver” value (diabetic db/db mice; db/db mice)?
**A.** enhanced

**Q.** What about the hyperglycemia (diabetic db/db mice; diabetic db/db mice) of the same compound?
**A.** significantly improved

**Q.** And the hyperlipidemia (diabetic db/db mice; diabetic db/db mice)?
**A.** significantly improved

**Q.** And the NEFA (diabetic db/db mice; [3])?
**A.** decreased

**Q.** And the blood glucose (diabetic db/db mice; [3])?
**A.** decreased

**Q.** What about the “serum β-hydroxybutyrate” value (diabetic db/db mice; [3]) of the same compound?
**A.** decreased

**Q.** What about the total cholesterol (diabetic db/db mice; [3]) of the same compound?
**A.** decreased

**Q.** What about the triglyceride (diabetic db/db mice; [3]) of the same compound?
**A.** decreased

**Q.** What about the bacterial overgrowth (bile duct-ligated mouse) of the same compound?
**A.** decreased

**Q.** What about the mucosal barrier (bile duct-ligated mouse) of the same compound?
**A.** improved

**Q.** What about the “translocation of bacteria to mesenteric lymph nodes” value (bile duct-ligated mouse) of the same compound?
**A.** decreased

**Q.** And the body weight (male ob/ob mice)?
**A.** did not alter

**Q.** What about the fasting blood glucose (male ob/ob mice) of the same compound?
**A.** no effect

**Q.** And the food intake (male ob/ob mice)?
**A.** did not alter

**Q.** And the glucose tolerance (male ob/ob mice)?
**A.** improved

**Q.** What about the insulin concentration (male ob/ob mice) of the same compound?
**A.** decreased

**Q.** What about the insulin sensitivity (male ob/ob mice) of the same compound?
**A.** enhanced

**Q.** What about the glucose tolerance ([2]; GW4064 100 mg/kg twice a day orally, high-fat diet mice, GTT, 100 mg/kg) of the same compound?
**A.** corrected glucose intolerance; also recorded: improve

**Q.** What about the serum glucose [2, 4] of the same compound?
**A.** decreased

**Q.** What about the serum insulin [2, 4] of the same compound?
**A.** decreased

**Q.** And the serum triglyceride [2, 4]?
**A.** decreased

**Q.** What about the “high-fat diet induced body weight gain” value [2, 5] of the same compound?
**A.** reduced

**Q.** And the liver triglyceride content [2, 5]?
**A.** reduced

**Q.** What about the body fat mass ([2]; mice on high-fat diet) of the same compound?
**A.** decrease

**Q.** And the body weight ([2]; mice on high-fat diet)?
**A.** decrease

**Q.** And the total cholesterol ([2]; mice on high-fat diet)?
**A.** decrease
